Test results from US12312370B2, “Immunoproteasome inhibitors” (Principia Biopharma Inc., priority 2017, dated 2025).

Tests used:
Type in all cases: biochemical
[1] = target: immunoproteasome LPM2/β1i subunit (Homo sapiens, UniProt P28065); assay: Caliper-based proteasome enzymatic activity assay, LMP2; conditions: human recombinant immunoproteasome 0.3 nM, FAM-labeled peptide substrate 1 μM, rt 2 h
[2] = target: immunoproteasome LMP7/B5i subunit (Homo sapiens, UniProt P28062); assay: Caliper-based proteasome enzymatic activity assay, LMP7; conditions: human recombinant immunoproteasome 0.3 nM, FAM-labeled peptide substrate 1 μM, rt 3 h; read-out: LMP7 subunit IC50
[3] = target: constitutive proteasome β5c unit (Homo sapiens, UniProt P28074); assay: Caliper-based proteasome enzymatic activity assay, β5c; conditions: human recombinant constitutive proteasome 0.3 nM, FAM-labeled peptide substrate 1 μM, rt 3 h; read-out: β5c subunit IC50

IC50 [1] [nM]	IC50 [2] [nM]	IC50 [3] [nM]	SMILES
> 5000	2.3	944	COC(=O)N1CCN(C(C)(C)C=C(C#N)C(=O)N2CCC[C@H](OC(=O)N[C@@H](Cc3ccccc3)B(O)O)C2)CC1 [Example 83, ((R)-1-(((((S)-1-(2-cyano-4-(4-(methoxycarbonyl)piperazin-1-yl)-4-methylpent-2-enoyl)piperidin-3-yl)oxy)carbonyl)amino)-2-phenylethyl)boronic acid]
> 5000	669	> 5000	CC(C)(C)C=C(C#N)C(=O)N1CCCC[C@H]1CNC(=O)N[C@@H](Cc1ccccc1)B(O)O [Example 40, ((R)-1-(3-(((S)-1-(2-cyano-4,4-dimethylpent-2-enoyl)piperidin-2-yl)methyl)ureido)-2-phenylethyl)boronic acid]
1860	113	1610	C=CC(=O)N1CC[C@H](OC(=O)N[C@@H](Cc2ccccc2)B(O)O)C1 [Example 88, ((R)-1-(((((S)-1-acryloylpyrrolidin-3-yl)oxy)carbonyl)amino)-2-phenylethyl)boronic acid]
> 5000	2.2	2850	Cc1ccc(C[C@H](NC(=O)OC[C@H]2CCCN(C(=O)C(C#N)=CC(C)(C)C)C2)B(O)O)cc1 [Example 44, ((R)-1-(((((S)-1-(2-cyano-4,4-dimethylpent-2-enoyl)piperidin-3-yl)methoxy)carbonyl)amino)-2-(p-tolyl)ethyl)boronic acid]
> 5000	2.3	501	CC(C)(C=C(C#N)C(=O)N1CCC[C@H](OC(=O)N[C@@H](Cc2ccc(F)cc2)B(O)O)C1)N1CCC(F)(F)C1 [Example 78, ((R)-1-(((((S)-1-(2-cyano-4-(3,3-difluoropyrrolidin-1-yl)-4-methylpent-2-enoyl)piperidin-3-yl)oxy)carbonyl)amino)-2-(4-fluorophenyl)ethyl)boronic acid]
> 5000	> 5000	> 5000	CC(C)C=C(C#N)C(=O)N1CCCC[C@@H]1CNC(=O)N[C@@H](Cc1ccccc1)B(O)O [Example 33, ((R)-1-(3-(((R)-1-(2-cyano-4-methylpent-2-enoyl)piperidin-2-yl)methyl)ureido)-2-phenylethyl)boronic acid]
115	12.3	27.4	CC(C)C=C(C#N)C(=O)NCCCC[C@H](NC(=O)c1cnccn1)C(=O)N[C@@H](Cc1ccccc1)B(O)O [Example 5, ((R)-1-((S)-6-(2-cyano-4-methylpent-2-enamido)-2-(pyrazine-2-carboxamido)hexanamido)-2-phenylethyl)boronic acid]
> 5000	4530	> 5000	C=CC(=O)N1CCC[C@H]1CNC(=O)N[C@@H](Cc1ccccc1)B(O)O [Example 37, ((R)-1-(3-(((S)-1-acryloylpyrrolidin-2-yl)methyl)ureido)-2-phenylethyl)boronic acid]
> 5000	4.4	> 5000	Cc1ccc(C[C@H](NC(=O)NC[C@H]2CCCN2C(=O)C(C#N)=CC(C)(C)C)B(O)O)cc1 [Example 43, ((R)-1-(3-(((R)-1-(2-cyano-4,4-dimethylpent-2-enoyl)pyrrolidin-2-yl)methyl)ureido)-2-(p-tolyl)ethyl)boronic acid]
3190	2.6	1620	CC(C)(C=C(C#N)C(=O)N1C2CCC1(COC(=O)N[C@@H](Cc1ccccc1)B(O)O)CC2)N1CCC(F)(F)C1 [Example 57, (R)-(1-((((7-(2-cyano-4-(3,3-difluoropyrrolidin-1-yl)-4-methylpent-2-enoyl)-7-azabicyclo[2.2.1]heptan-1-yl)methoxy)carbonyl)amino)-2-phenylethyl)boronic acid]
> 5000	4	1690	Cc1ccc(C[C@H](NC(=O)OC[C@H]2CCN(C(=O)C(C#N)=CC(C)(C)C)C2)B(O)O)cc1 [Example 46, ((R)-1-(((((S)-1-(2-cyano-4,4-dimethylpent-2-enoyl)pyrrolidin-3-yl)methoxy)carbonyl)amino)-2-(p-tolyl)ethyl)boronic acid]
> 5000	13	> 5000	Cc1ccc(C[C@H](NC(=O)NC[C@@H]2CCCN2C(=O)C(C#N)=CC(C)(C)C)B(O)O)cc1 [Example 42, ((R)-1-(3-(((S)-1-(2-cyano-4,4-dimethylpent-2-enoyl)pyrrolidin-2-yl)methyl)ureido)-2-(p-tolyl)ethyl)boronic acid]
> 5000	> 5000	> 5000	C=CC(=O)N1CCCC[C@H]1CNC(=O)N[C@@H](Cc1ccccc1)B(O)O [Example 38, ((R)-1-(3-(((S)-1-acryloylpiperidin-2-yl)methyl)ureido)-2-phenylethyl)boronic acid]
> 5000	30	> 5000	C=CC(=O)N1CCC[C@@H]1CNC(=O)N[C@@H](Cc1coc2ccccc12)B(O)O [Example 41, ((R)-1-(3-(((R)-1-acryloylpyrrolidin-2-yl)methyl)ureido)-2-(benzofuran-3-yl)ethyl)boronic acid]
> 5000	1.1	54.6	CC(C)(C=C(C#N)C(=O)N1CCC[C@H](OC(=O)N[C@@H](Cc2coc3ccccc23)B(O)O)C1)N1CCC(F)(F)C1 [Example 73, ((R)-2-(benzofuran-3-yl)-1-(((((S)-1-(2-cyano-4-(3,3-difluoropyrrolidin-1-yl)-4-methylpent-2-enoyl)piperidin-3-yl)oxy)carbonyl)amino)ethyl)boronic acid]
> 5000	3.5	1900	CC(C)(C=C(C#N)C(=O)N1CCC[C@@H]1CNC(=O)N[C@@H](Cc1coc2ccccc12)B(O)O)N1CCOCC1 [Example 47, ((R)-2-(benzofuran-3-yl)-1-(3-(((R)—1(2-cyano-4-methyl-4-morpholinopent-2-enoyl)pyrrolidin-2-yl)methyl)ureido)ethyl)boronic acid]
> 5000	611	> 5000	CC(C)C=C(C#N)C(=O)N1CCCC[C@H]1CNC(=O)N[C@@H](Cc1ccccc1)B(O)O [Example 35, ((R)-1-(3-(((S)-1-(2-cyano-4-methylpent-2-enoyl)piperidin-2-yl)methyl)ureido)-2-phenylethyl)boronic acid]
> 5000	4.7	2070	CC(C)(C)C=C(C#N)C(=O)N1CCC[C@@H]1CNC(=O)N[C@@H](Cc1coc2ccccc12)B(O)O [Example 45, ((R)-2-(benzofuran-3-yl)-1-(3-(((R)-1-(2-cyano-4,4-dimethylpent-2-enoyl)pyrrolidin-2-yl)methyl)ureido)ethyl)boronic acid]
46.3	12.8	8.5	CC(C)C=C(C#N)C(=O)NCCCC[C@H](NC(=O)c1cnccn1)C(=O)N[C@@H](CC(C)C)B(O)O [Example 2, ((R)-1-((S)-6-(2-cyano-4-methylpent-2-enamido)-2-(pyrazine-2-carboxamido)hexanamido)-3-methylbutyl)boronic acid]
3740	8.7	383	CC(C)(C=C(C#N)C(=O)N1CCC[C@@H]1CNC(=O)N[C@@H](Cc1coc2ccccc12)B(O)O)N1CCN(C2COC2)CC1 [Example 48, ((R)-2-(benzofuran-3-yl)-1-(3-(((R)-1-(2-cyano-4-methyl-4-(4-(oxetan-3-yl)piperazin-1-yl)pent-2-enoyl)pyrrolidin-2-yl)methyl)ureido)ethyl)boronic acid]
82.7	12.9	38.5	CC(C)C=C(C#N)C(=O)NCCCC[C@H](NC(=O)c1cccc(O)n1)C(=O)N[C@@H](Cc1ccccc1)B(O)O [Example 6, ((R)-1-((S)-6-(2-cyano-4-methylpent-2-enamido)-2-(6-hydroxypicolinamido)hexanamido)-2-phenylethyl)boronic acid]
–	7.7	1950	CC(C)(C=C(C#N)C(=O)N1CCC[C@H](OC(=O)N[C@@H](Cc2ccccc2)B(O)O)C1)N1CCN2C(=O)OC[C@@H]2C1 [Example 97, ((R)-1-(((((S)-1-(2-cyano-4-methyl-4-((S)-3-oxotetrahydro-3H-oxazolo[3,4-a]pyrazin-7(1H)-yl)pent-2-enoyl)piperidin-3-yl)oxy)carbonyl)amino)-2-phenylethyl)boronic acid]
–	8.2	9.4	CC(C)C=C(C#N)C(=O)NCCCC[C@H](NC(=O)[C@@H](NC(=O)C(C)C)[C@@H](C)O)C(=O)N[C@@H](CC(C)C)B(O)O [Example 9, ((R)-1-((S)-6-(2-cyano-4-methylpent-2-enamido)-2-((2S,3R)-3-hydroxy-2-isobutyramidobutanamido)hexanamido)-3-methylbutyl)boronic acid]

SMILES	IC50 [1] [nM]	IC50 [2] [nM]	IC50 [3] [nM]
CC(C)C=C(C#N)C(=O)N1CCC[C@H]1CNC(=O)N[C@@H](Cc1ccccc1)B(O)O [Example 34, ((R)-1-(3-(((S)-1-(2-cyano-4-methylpent-2-enoyl)pyrrolidin-2-yl)methyl)ureido)-2-phenylethyl)boronic acid]	> 5000	231	> 5000
C=CC(=O)N1CCC[C@@H]1CNC(=O)N[C@@H](Cc1ccccc1)B(O)O [Example 36, ((R)-1-(3-(((R)-1-acryloylpyrrolidin-2-yl)methyl)ureido)-2-phenylethyl)boronic acid]	> 5000	1140	> 5000
CC(C)(C)C=C(C#N)C(=O)N1CCC[C@H]1CNC(=O)N[C@@H](Cc1ccccc1)B(O)O [Example 39, ((R)-1-(3-(((S)-1-(2-cyano-4,4-dimethylpent-2-enoyl)pyrrolidin-2-yl)methyl)ureido)-2-phenylethyl)boronic acid]	> 5000	78.8	> 5000
